Results taken from ChEMBL document CHEMBL3991601, “The target landscape of clinical kinase drugs” (Science, 2017).
Activity calls are given as the source filed them. Rule as the data show it, for most assays here: actives have a measured Kd and inactives only a lower limit.

Columns and labels:
[1] = target: Ribosomal protein S6 kinase alpha-5 (Homo sapiens, UniProt O75582)
[2] = target: Mitotic checkpoint serine/threonine-protein kinase BUB1 (Homo sapiens, UniProt O43683)
[3] = target: T1, Serine/threonine-protein kinase 3 (Homo sapiens, UniProt Q13188)
T1 sequence (Q13188 whole entry): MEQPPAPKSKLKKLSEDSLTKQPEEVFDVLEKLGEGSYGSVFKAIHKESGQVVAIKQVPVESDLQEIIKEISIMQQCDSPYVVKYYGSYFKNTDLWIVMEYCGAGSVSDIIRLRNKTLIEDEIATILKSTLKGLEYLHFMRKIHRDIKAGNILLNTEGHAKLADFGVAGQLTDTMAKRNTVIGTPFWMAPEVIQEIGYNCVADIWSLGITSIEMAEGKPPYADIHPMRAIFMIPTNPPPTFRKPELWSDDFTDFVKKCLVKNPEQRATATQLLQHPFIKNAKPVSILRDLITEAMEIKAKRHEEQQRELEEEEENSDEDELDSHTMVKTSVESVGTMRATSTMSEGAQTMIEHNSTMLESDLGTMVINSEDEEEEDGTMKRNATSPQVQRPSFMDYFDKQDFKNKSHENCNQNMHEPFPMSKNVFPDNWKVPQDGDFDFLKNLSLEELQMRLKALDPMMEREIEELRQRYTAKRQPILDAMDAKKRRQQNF

[4] = target: T2, Dynamin-like GTPase OPA1, mitochondrial (Homo sapiens, UniProt O60313)
T2 sequence (O60313 whole entry): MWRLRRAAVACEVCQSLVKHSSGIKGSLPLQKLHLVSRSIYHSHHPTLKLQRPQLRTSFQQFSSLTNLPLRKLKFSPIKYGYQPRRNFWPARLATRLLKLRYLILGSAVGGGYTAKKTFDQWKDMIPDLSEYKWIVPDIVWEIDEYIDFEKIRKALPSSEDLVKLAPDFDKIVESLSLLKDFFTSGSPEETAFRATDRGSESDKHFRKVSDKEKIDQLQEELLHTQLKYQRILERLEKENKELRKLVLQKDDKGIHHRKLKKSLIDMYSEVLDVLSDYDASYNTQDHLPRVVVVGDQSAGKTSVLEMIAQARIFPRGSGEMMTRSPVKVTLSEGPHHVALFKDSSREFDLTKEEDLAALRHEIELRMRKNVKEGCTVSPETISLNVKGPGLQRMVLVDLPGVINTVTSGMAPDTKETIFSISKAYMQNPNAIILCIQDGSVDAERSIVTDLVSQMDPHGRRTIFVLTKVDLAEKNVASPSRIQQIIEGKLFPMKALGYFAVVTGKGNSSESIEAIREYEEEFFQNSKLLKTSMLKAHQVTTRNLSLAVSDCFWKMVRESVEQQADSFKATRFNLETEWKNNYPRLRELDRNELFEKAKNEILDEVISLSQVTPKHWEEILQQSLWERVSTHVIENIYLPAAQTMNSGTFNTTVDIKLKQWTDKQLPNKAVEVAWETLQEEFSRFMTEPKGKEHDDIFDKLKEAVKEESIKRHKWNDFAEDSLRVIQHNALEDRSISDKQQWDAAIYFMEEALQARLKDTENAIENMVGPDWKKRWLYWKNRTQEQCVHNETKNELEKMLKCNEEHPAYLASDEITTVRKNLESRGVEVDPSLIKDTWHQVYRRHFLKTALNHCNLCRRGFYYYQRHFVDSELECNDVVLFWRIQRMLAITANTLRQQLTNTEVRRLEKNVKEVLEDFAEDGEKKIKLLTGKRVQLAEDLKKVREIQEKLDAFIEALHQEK

[5] = target: STE20-like serine/threonine-protein kinase (Homo sapiens, UniProt Q9H2G2)
[6] = target: T3, Ephrin type-B receptor 3 (Homo sapiens, UniProt P54753)
T3 sequence (P54753 whole entry): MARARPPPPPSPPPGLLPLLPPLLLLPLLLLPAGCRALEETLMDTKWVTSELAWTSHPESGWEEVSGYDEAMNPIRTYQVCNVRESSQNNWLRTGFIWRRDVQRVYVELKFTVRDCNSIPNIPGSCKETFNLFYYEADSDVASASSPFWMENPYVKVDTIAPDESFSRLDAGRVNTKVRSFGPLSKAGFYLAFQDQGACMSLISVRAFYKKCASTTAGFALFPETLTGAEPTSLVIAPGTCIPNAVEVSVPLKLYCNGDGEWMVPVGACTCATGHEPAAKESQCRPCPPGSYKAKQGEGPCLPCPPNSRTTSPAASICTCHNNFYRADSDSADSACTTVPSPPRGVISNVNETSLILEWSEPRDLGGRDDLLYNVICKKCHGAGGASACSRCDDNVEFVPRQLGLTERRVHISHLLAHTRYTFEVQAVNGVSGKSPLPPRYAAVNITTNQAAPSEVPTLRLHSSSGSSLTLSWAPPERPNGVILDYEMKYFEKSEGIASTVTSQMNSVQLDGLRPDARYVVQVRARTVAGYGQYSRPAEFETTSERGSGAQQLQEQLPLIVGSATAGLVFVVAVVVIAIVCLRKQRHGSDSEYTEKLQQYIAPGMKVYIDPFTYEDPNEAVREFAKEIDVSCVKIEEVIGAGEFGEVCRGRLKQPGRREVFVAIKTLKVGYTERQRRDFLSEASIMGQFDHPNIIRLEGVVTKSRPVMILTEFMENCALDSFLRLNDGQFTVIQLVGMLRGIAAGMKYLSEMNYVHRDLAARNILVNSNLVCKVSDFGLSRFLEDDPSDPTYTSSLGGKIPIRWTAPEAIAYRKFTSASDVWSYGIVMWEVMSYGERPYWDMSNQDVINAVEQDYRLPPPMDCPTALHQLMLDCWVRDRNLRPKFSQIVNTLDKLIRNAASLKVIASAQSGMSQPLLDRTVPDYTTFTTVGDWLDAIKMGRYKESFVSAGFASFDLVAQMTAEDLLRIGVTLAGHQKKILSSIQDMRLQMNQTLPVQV

[7] = target: Mitogen-activated protein kinase kinase kinase 4 (Homo sapiens, UniProt Q9Y6R4)
[8] = target: Eukaryotic translation initiation factor 2-alpha kinase 1 (Homo sapiens, UniProt Q9BQI3)
[9] = target: Serine/threonine-protein kinase N2 (Homo sapiens, UniProt Q16513)
Also: in the data inactive means no Kd found up to 30 µM.

Chain of STE20-like serine/threonine-protein kinase (Q9H2G2 whole entry): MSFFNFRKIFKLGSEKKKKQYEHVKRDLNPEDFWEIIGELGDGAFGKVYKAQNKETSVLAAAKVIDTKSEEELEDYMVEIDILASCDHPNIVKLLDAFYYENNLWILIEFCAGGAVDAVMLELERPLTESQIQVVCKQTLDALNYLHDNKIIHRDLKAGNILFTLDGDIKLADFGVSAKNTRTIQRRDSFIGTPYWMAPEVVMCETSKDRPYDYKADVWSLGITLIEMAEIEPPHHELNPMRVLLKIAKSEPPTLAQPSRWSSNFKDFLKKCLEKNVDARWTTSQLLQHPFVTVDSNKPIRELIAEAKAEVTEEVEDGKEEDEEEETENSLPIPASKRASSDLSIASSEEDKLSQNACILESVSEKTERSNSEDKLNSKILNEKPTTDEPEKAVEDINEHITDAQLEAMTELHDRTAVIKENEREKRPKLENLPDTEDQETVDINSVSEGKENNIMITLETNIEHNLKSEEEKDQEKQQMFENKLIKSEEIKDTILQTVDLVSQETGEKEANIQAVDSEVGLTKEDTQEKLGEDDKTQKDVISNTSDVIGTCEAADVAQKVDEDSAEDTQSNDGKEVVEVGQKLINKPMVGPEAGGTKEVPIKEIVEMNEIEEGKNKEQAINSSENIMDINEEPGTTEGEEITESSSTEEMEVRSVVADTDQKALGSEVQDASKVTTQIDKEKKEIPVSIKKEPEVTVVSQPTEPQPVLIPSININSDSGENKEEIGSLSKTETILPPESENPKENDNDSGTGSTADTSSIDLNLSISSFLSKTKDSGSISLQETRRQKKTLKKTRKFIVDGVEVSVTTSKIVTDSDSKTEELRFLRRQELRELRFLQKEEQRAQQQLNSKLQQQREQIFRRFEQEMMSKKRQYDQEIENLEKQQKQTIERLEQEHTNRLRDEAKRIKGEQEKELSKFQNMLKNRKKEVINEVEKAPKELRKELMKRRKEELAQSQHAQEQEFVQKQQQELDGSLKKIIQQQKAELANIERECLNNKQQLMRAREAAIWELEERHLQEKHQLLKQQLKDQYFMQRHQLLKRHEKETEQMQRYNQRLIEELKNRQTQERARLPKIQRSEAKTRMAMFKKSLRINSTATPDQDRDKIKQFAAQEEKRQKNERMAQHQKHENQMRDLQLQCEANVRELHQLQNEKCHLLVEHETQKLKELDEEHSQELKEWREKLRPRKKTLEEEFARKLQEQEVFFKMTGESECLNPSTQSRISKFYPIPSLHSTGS
Chain of Ribosomal protein S6 kinase alpha-5 (O75582 whole entry): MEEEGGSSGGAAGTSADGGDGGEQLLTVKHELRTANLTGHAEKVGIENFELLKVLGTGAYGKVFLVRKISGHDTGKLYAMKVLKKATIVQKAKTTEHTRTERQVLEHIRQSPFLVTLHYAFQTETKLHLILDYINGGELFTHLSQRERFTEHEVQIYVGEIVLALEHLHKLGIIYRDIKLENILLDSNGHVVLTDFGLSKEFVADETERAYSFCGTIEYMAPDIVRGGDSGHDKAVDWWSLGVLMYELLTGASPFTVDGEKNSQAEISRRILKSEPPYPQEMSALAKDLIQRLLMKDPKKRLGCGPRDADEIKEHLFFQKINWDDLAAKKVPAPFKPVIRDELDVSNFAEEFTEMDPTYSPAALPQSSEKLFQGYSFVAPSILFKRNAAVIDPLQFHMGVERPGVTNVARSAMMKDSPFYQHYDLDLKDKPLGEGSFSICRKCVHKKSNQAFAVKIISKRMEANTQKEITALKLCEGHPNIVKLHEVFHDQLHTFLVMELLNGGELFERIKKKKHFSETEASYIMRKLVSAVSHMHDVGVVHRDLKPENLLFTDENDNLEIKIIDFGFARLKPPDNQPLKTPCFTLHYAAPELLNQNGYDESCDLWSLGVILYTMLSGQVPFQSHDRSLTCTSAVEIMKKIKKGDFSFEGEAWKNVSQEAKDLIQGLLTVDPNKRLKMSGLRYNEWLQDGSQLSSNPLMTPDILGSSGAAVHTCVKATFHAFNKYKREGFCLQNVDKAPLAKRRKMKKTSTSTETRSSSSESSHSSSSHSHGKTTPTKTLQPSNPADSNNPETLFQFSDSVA
Chain of Serine/threonine-protein kinase N2 (Q16513 whole entry): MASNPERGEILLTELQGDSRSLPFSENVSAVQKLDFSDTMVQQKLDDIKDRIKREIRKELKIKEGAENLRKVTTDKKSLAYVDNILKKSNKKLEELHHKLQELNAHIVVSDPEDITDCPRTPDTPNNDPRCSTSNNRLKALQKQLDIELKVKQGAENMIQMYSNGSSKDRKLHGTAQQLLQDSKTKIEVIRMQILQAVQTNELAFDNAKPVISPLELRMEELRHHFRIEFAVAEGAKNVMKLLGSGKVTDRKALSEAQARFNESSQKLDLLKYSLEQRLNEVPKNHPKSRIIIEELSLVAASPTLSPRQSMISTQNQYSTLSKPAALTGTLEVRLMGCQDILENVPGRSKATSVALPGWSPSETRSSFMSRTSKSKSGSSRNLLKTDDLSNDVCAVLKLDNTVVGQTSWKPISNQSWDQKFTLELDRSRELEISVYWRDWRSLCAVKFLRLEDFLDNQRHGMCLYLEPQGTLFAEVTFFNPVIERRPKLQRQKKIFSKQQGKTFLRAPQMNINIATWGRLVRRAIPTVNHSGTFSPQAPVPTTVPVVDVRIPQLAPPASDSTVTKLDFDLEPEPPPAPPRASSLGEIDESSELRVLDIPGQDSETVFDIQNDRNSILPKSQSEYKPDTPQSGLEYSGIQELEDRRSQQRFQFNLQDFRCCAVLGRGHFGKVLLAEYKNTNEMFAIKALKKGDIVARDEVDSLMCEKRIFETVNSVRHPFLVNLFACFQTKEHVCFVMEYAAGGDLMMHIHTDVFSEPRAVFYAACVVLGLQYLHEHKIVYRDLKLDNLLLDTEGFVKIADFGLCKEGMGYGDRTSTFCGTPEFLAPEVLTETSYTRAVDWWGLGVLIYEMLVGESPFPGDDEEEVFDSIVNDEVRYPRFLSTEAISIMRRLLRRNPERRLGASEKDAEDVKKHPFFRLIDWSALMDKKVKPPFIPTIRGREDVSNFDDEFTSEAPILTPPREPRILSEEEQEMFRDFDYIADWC
Chain of Mitogen-activated protein kinase kinase kinase 4 (Q9Y6R4 whole entry): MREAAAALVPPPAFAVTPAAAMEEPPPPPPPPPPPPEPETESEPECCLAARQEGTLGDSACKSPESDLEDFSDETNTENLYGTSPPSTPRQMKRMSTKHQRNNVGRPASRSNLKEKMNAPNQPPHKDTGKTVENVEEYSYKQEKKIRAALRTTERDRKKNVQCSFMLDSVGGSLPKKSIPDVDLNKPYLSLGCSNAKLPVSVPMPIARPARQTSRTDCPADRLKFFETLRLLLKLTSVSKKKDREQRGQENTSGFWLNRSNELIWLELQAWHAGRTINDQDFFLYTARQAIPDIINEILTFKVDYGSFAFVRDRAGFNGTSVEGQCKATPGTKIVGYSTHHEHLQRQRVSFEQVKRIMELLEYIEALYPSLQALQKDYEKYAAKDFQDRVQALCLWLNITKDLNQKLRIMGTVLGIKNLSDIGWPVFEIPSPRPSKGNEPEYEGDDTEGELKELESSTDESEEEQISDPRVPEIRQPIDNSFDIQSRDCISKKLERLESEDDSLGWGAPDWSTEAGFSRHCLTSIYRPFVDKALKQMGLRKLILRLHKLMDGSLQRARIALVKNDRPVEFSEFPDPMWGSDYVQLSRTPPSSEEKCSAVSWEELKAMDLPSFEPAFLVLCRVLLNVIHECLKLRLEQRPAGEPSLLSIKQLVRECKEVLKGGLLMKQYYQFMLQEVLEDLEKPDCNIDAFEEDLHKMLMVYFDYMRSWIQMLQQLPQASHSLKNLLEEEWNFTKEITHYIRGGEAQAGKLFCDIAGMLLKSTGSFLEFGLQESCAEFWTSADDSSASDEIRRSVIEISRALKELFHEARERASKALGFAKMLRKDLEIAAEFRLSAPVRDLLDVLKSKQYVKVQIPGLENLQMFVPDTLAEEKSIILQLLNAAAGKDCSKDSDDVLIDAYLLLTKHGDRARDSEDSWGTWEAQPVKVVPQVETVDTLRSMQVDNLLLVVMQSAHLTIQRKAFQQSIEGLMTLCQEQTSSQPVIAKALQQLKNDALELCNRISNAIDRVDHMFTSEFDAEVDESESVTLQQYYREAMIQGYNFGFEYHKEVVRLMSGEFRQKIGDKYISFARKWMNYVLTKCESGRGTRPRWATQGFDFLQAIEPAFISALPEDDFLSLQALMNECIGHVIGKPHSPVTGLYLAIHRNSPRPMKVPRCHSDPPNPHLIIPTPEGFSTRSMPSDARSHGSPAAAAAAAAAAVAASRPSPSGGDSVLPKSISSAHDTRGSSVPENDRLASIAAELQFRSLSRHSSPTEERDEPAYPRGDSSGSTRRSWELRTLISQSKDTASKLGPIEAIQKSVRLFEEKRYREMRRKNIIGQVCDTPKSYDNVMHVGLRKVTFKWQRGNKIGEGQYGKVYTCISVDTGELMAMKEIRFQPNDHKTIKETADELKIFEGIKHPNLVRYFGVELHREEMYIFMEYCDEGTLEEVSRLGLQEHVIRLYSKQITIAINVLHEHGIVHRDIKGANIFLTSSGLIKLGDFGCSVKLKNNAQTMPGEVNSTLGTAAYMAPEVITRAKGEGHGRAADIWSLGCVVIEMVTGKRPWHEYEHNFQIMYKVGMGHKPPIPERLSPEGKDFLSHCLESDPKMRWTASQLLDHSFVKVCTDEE

Row | SMILES | Kd [1] | Kd [2] | Kd [3] | Kd [4] | Kd [5] | Kd [6] | Kd [7] | Kd [8] | Kd [9]
1 | Cc1ccc(NC(=O)c2ccc(CN3CC[C@H](N(C)C)C3)c(C(F)(F)F)c2)cc1Nc1nccc(-c2cncnc2)n1 [BAFETINIB] | > 30 µM (inactive) | > 30 µM (inactive) | > 30 µM (inactive) | > 30 µM (inactive) | > 30 µM (inactive) | 4.55 µM (active) | > 30 µM (inactive) | > 30 µM (inactive) | > 30 µM (inactive)
2 | Cc1cc2c(F)c(Oc3ncnn4cc(OC[C@@H](C)OC(=O)[C@H](C)N)c(C)c34)ccc2[nH]1 [BRIVANIB ALANINATE] | > 30 µM (inactive) | > 30 µM (inactive) | > 30 µM (inactive) | > 30 µM (inactive) | 9.49 µM (active) | > 30 µM (inactive) | > 30 µM (inactive) | > 30 µM (inactive) | > 30 µM (inactive)
3 | CNC(=O)c1ccc(-c2cnc3ncc(Cc4ccc5ncccc5c4)n3n2)cc1F [CAPMATINIB] | > 30 µM (inactive) | > 30 µM (inactive) | > 30 µM (inactive) | > 30 µM (inactive) | > 30 µM (inactive) | > 30 µM (inactive) | > 30 µM (inactive) | > 30 µM (inactive) | > 30 µM (inactive)
4 | O=C(c1ccc(F)c(F)c1Nc1ccc(I)cc1F)N1CC(O)([C@@H]2CCCCN2)C1 [COBIMETINIB] | > 30 µM (inactive) | > 30 µM (inactive) | > 30 µM (inactive) | > 30 µM (inactive) | > 30 µM (inactive) | > 30 µM (inactive) | > 30 µM (inactive) | > 30 µM (inactive) | > 30 µM (inactive)
5 | CCc1cnn2c(NCc3ccc[n+]([O-])c3)cc(N3CCCC[C@H]3CCO)nc12 [DINACICLIB] | > 30 µM (inactive) | > 30 µM (inactive) | > 30 µM (inactive) | > 30 µM (inactive) | > 30 µM (inactive) | > 30 µM (inactive) | > 30 µM (inactive) | > 30 µM (inactive) | > 30 µM (inactive)
6 | COC(=O)N[C@@H](C)CNc1nccc(-c2cn(C(C)C)nc2-c2cc(Cl)cc(NS(C)(=O)=O)c2F)n1 [ENCORAFENIB] | > 30 µM (inactive) | > 30 µM (inactive) | > 30 µM (inactive) | > 30 µM (inactive) | > 30 µM (inactive) | > 30 µM (inactive) | 1.44 µM (active) | > 30 µM (inactive) | > 30 µM (inactive)
7 | CO[C@H]1C[C@@H]2CC[C@@H](C)[C@@](O)(O2)C(=O)C(=O)N2CCCC[C@H]2C(=O)O[C@H]([C@H](C)C[C@@H]2CC[C@@H](OCCO)[C@H](OC)C2)CC(=O)[C@H](C)/C=C(\C)[C@@H](O)[C@@H](OC)C(=O)[C@H](C)C[C@H](C)/C=C/C=C/C=C/1C [EVEROLIMUS] | > 30 µM (inactive) | > 30 µM (inactive) | > 30 µM (inactive) | > 30 µM (inactive) | > 30 µM (inactive) | > 30 µM (inactive) | > 30 µM (inactive) | > 30 µM (inactive) | > 30 µM (inactive)

Other lines, results leading:

Row | Kd [1] | Kd [2] | Kd [3] | Kd [4] | Kd [5] | Kd [6] | Kd [7] | Kd [8] | Kd [9] | SMILES
8 | > 30 µM (inactive) | > 30 µM (inactive) | > 30 µM (inactive) | > 30 µM (inactive) | > 30 µM (inactive) | > 30 µM (inactive) | > 30 µM (inactive) | > 30 µM (inactive) | > 30 µM (inactive) | Cc1cc([C@@H](C)Nc2ccccc2C(=O)O)c2nc(N3CCOCC3)cc(=O)n2c1 [AZD-6482]
9 | > 30 µM (inactive) | > 30 µM (inactive) | > 30 µM (inactive) | > 30 µM (inactive) | > 30 µM (inactive) | > 30 µM (inactive) | > 30 µM (inactive) | > 30 µM (inactive) | > 30 µM (inactive) | COc1ccc(-c2ccc3c(N4CCOC[C@@H]4C)nc(N4CCOC[C@@H]4C)nc3n2)cc1CO [AZD-8055]
10 | > 30 µM (inactive) | > 30 µM (inactive) | > 30 µM (inactive) | > 30 µM (inactive) | > 30 µM (inactive) | > 30 µM (inactive) | > 30 µM (inactive) | > 30 µM (inactive) | > 30 µM (inactive) | C[C@@H](Nc1cc(F)cc(F)c1)c1cc(C(=O)N(C)C)cc2c(=O)cc(N3CCOCC3)oc12 [AZD-8186]
